Results published in paper PMC10987480, “Biological and mutational analyses of CXCR4–antagonist interactions and design of new antagonistic analogs” (Bioscience Reports, 2023).
Positions of bridges follow the written chain, without caps; N, C: chain ends. Non-standard residues stand in square brackets, D forms with d. Residues, ends and D or L forms follow the SMILES beside them. Chains are numbered I, II in the order given. No end group written: not given here. 2Nal = N[C@@H](Cc1ccc2ccccc2c1)C(=O)O; Lys(iPr) = CC(C)NCCCC[C@H](N)C(=O)O

Assays:
CXCR4 W195A = biological target: T1, CXCR4 W195A (Homo sapiens, UniProt P61073, W195A); test: Competitive binding to CXCR4 mutant W195A (12G5, CHO cells); details: TM4, class of reduction vs wild-type CXCR4, 12G5 competition, averages of at least three independent experiments
T1 construct: expressed in transfected cells
T1 sequence (P61073 whole entry W195A): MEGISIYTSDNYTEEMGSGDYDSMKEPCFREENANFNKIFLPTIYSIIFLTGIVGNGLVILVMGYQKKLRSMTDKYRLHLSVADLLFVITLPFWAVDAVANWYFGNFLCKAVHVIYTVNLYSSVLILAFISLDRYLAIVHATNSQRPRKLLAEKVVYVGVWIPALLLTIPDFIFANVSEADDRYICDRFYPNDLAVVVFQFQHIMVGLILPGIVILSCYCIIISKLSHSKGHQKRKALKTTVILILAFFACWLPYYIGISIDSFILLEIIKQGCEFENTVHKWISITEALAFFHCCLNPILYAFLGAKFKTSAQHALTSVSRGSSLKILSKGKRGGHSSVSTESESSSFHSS
Procedure: (§1) Plasmid pcDNA3-CXCR4 and mutated pcDNA3-CXCR4 were extracted and transfected into CHO cells using Lipofectamine 2000 according to the manufacturer’s guidelines. The selective medium containing G418 at a concentration of 1.2 mg/ml was applied to isolate stably transfected cells. CHO cells expressing wild-type CXCR4 and mutant CXCR4 were obtained using fluorescence-activated cell sorting (FACS).
(§2) All of the CXCR4 mutants were prepared using PCR technology. Briefly, pairs of asymmetrical primers containing the desired amino acid mutations (Supplementary Tables S1 and S2), each complementary to opposite strands of the pcDNA3–CXCR4, were designed for amplification by Q5® High-Fidelity DNA polymerase and the generation of mutated constructs. The methylated pcDNA3–CXCR4 templates were digested by DpnI. The mutated pcDNA3–CXCR4 was transformed into competent E. coli TOP10 for long-term storage and amplification.
(§3) The procedure for the CXCR4 competitive binding experiments was published previously. Briefly, CXCR4 antibody 12G5 (250 ng/ml) was incubated with 5 × 10^5 cells and varying concentrations of unlabeled compounds in a final volume of 100 μl of assay buffer (PBS with 0.5% BSA and 0.05% NaN3) in 96-well plates for 40 min on ice, after being washed with assay buffer once. The cells were incubated with FITC-conjugated second antibody IgG for 30 min on ice, then washed with assay buffer three times. The fluorescence intensity was measured for excitation at 485 nm and emission at 535 nm using multimode plate reader (PerkinElmer). The IC50 values were calculated using graphpad Prism 7. Experiments were performed at least three times.

CXCR4 H281A = biological target: T2, CXCR4 H281A (Homo sapiens, UniProt P61073, H281A); test: Competitive binding to CXCR4 mutant H281A (12G5, CHO cells); details: TM7, class of reduction vs wild-type CXCR4, 12G5 competition, averages of at least three independent experiments
T2 construct: expressed in transfected cells
T2 sequence (P61073 whole entry H281A): as the sequence (P61073 whole entry W195A) above, with A195W, H281A counted along it
Procedure: as §1, §2, §3

CXCR4 [1] = biological target: T3, CXCR4 (Homo sapiens, UniProt P61073); test: Competitive CXCR4 binding assay (12G5 antibody probe), wild-type CXCR4 transfected CHO cells; set-up: expressed in transfected cells; Competitive receptor binding activity, wild-type CXCR4 (WT): key to the marks not given beside the values; details: for Competitive receptor binding activity, wild-type CXCR4 (WT): class relative to wild-type, 12G5 competition, stably transfected CHO cells, averages of at least three independent experiments
T3 sequence (P61073 whole entry): as the sequence (P61073 whole entry W195A) above, with A195W counted along it
Procedure: The CXCR4-specific antibody, 12G5 was used as a probe for the competitive CXCR4 binding assay to evaluate the binding activity of CXCR4 antagonists.
Figure 1 Competitive CXCR4 binding curves of eleven CXCR4 antagonists The CXCR4 transfected CHO cells were incubated with different concentrations of antagonists and 250 ng/ml 12G5 antibody. The CXCR4-binding 12G5 antibody was recognized by FITC-conjugated anti-IgG second antibody. The cells treated with only second antibody were used as a negative control (0%) while cells treated with both 12G5 antibody and second antibody were used as a positive control (100%). Cells treated with CXCR4 antagonists were calculated in percentage relative to the positive and negative controls. The data were averages of at least three independent experiments and shown as mean ± standard error of the mean (S.E.M.).
as §3

CXCR4 W252A = biological target: T4, CXCR4 W252A (Homo sapiens, UniProt P61073, W252A); test: Competitive binding to CXCR4 mutant W252A (12G5, CHO cells); details: TM6, class of reduction vs wild-type CXCR4, 12G5 competition, averages of at least three independent experiments
T4 construct: expressed in transfected cells
T4 sequence (P61073 whole entry W252A): as the sequence (P61073 whole entry W195A) above, with A195W, W252A counted along it
Procedure: as §1, §2, §3

CXCR4 D262E = biological target: T5, CXCR4 D262E (Homo sapiens, UniProt P61073, D262E); test: Competitive binding to CXCR4 mutant D262E (12G5, CHO cells); details: TM6, class of reduction vs wild-type CXCR4, 12G5 competition, averages of at least three independent experiments
T5 construct: expressed in transfected cells
T5 sequence (P61073 whole entry D262E): as the sequence (P61073 whole entry W195A) above, with A195W, D262E counted along it
Procedure: as §1, §2, §3

CXCR4 D97A = biological target: T6, CXCR4 D97A (Homo sapiens, UniProt P61073, D97A); test: Competitive binding to CXCR4 mutant D97A (12G5, CHO cells); details: TM2, class of reduction vs wild-type CXCR4, 12G5 competition, averages of at least three independent experiments
T6 construct: expressed in transfected cells
T6 sequence (P61073 whole entry D97A): as the sequence (P61073 whole entry W195A) above, with D97A, A195W counted along it
Procedure: as §1, §2, §3

CXCR4 Y256A = biological target: T7, CXCR4 Y256A (Homo sapiens, UniProt P61073, Y256A); test: Competitive binding to CXCR4 mutant Y256A (12G5, CHO cells); details: TM6, class of reduction vs wild-type CXCR4, 12G5 competition, averages of at least three independent experiments
T7 construct: expressed in transfected cells
T7 sequence (P61073 whole entry Y256A): as the sequence (P61073 whole entry W195A) above, with A195W, Y256A counted along it
Procedure: as §1, §2, §3

CXCR4 Y255A = biological target: T8, CXCR4 Y255A (Homo sapiens, UniProt P61073, Y255A); test: Competitive binding to CXCR4 mutant Y255A (12G5, CHO cells); details: TM6, class of reduction vs wild-type CXCR4, 12G5 competition, averages of at least three independent experiments
T8 construct: expressed in transfected cells
T8 sequence (P61073 whole entry Y255A): as the sequence (P61073 whole entry W195A) above, with A195W, Y255A counted along it
Procedure: as §1, §2, §3

CXCR4 H203A = biological target: T9, CXCR4 H203A (Homo sapiens, UniProt P61073, H203A); test: Competitive binding to CXCR4 mutant H203A (12G5, CHO cells); details: TM5, class of reduction vs wild-type CXCR4, 12G5 competition, averages of at least three independent experiments
T9 construct: expressed in transfected cells
T9 sequence (P61073 whole entry H203A): as the sequence (P61073 whole entry W195A) above, with A195W, H203A counted along it
Procedure: as §1, §2, §3

CXCR4 D193A = biological target: T10, CXCR4 D193A (Homo sapiens, UniProt P61073, D193A); test: Competitive binding to CXCR4 mutant D193A (12G5, CHO cells); details: TM4, class of reduction vs wild-type CXCR4, 12G5 competition, averages of at least three independent experiments
T10 construct: expressed in transfected cells
T10 sequence (P61073 whole entry D193A): as the sequence (P61073 whole entry W195A) above, with D193A, A195W counted along it
Procedure: as §1, §2, §3

CXCR4 [2] = biological target: T3, CXCR4; test: SDF-1α-induced cell migration assay in SupT1 cells (transwell); assay type: cell-based; set-up: host or cells: SupT1 cells; details: 2 nM SDF-1α, 30 min pre-incubation, 3 h migration; for inhibition at 0.2 µM: SUP-T1, at 200 nM
Procedure: Figure 2 The inhibitory effect of the antagonists on SDF-1α-induced cell chemotaxis and calcium mobilization in SupT1 cells The antagonists and concentrations used were labeled in each lane. (A) The inhibition of cell migration by the noted antagonists. SupT1 cells pre-treated with or without CXCR4 antagonists were seeded in the upper well and cell migrated by 2 nM SDF-1α. Migrated cells without SDF-1α were used as a negative (0%) and migrated cell induced by SDF-1α as a positive control (100%). […] SupT1 cells were treated with or without CXCR4 antagonists and activated by 50 nM SDF-1α. To directly compare the inhibitory effect of the antagonists on calcium mobilization, the vehicle background and baseline were removed using GraphPad and Origin. The data were averages of at least three independent experiments.
SupT1 cells (2 × 10^6 cells per well in 75 μl) were collected and washed using assay buffer (RPMI 1640 supplemented with 0.5% BSA) and incubated with various concentrations of tested compounds for 30 min in the upper well of the transwell-96 well plates with 5.0 µm pore polycarbonate membrane insert (Corning, U.S.A.). Then, 200 μl assay buffer containing 2 nM SDF-1α was added to the lower well and cells were allowed to migrate for 3 h. Migrated cells were measured using celltiter-96 reagent.

| Compound | Competitive receptor binding activity, CXCR4 W195A (CXCR4 W195A) | Competitive receptor binding activity, CXCR4 H281A (CXCR4 H281A) | Competitive receptor binding activity, wild-type CXCR4 (WT) (CXCR4 [1]) | Competitive receptor binding activity, CXCR4 W252A (CXCR4 W252A) | Competitive receptor binding activity, CXCR4 D262E (CXCR4 D262E) | Competitive receptor binding activity, CXCR4 D97A (CXCR4 D97A) | Competitive receptor binding activity, CXCR4 Y256A (CXCR4 Y256A) | Competitive receptor binding activity, CXCR4 Y255A (CXCR4 Y255A) | Competitive receptor binding activity, CXCR4 H203A (CXCR4 H203A) | Competitive receptor binding activity, CXCR4 D193A (CXCR4 D193A) | inhibition at 0.2 µM (CXCR4 [2]) | inhibition at 4 µM (CXCR4 [2]; SUP-T1, at 4 μM) | IC50 (CXCR4 [1]; CXCR4 transfected CHO cells, 250 ng/ml 12G5, 40 min on ice, FITC second antibody, mean ± S.E.M. of at least three independent experiments, SEM, read-out: IC50 (nM), inhibition of 12G5 binding to CXCR4) | inhibition at 0.4 µM (CXCR4 [2]; SUP-T1, at 400 nM) | inhibition at 2 µM (CXCR4 [2]; SUP-T1, at 2 μM) |
| --- | --- | --- | --- | --- | --- | --- | --- | --- | --- | --- | --- | --- | --- | --- | --- |
| c1cc(CN2CCCNCCNCCCNCC2)ccc1CN1CCCNCCNCCCNCC1 [AMD3100] | +++ | +++ | +++ | +++ | + (30–60% reduction compared with wild-type CXCR4) | ++ (10–29% reduction compared with wild-type CXCR4) | +++ | ++ (10–29% reduction compared with wild-type CXCR4) | +++ | ++ (10–29% reduction compared with wild-type CXCR4) | 61% | – | – | – | – |
| NCCCCN(Cc1nc2ccccc2[nH]1)[C@H]1CCCc2cccnc21 [AMD11070] | ++ (10–29% reduction compared with wild-type CXCR4) | ++ (10–29% reduction compared with wild-type CXCR4) | +++ | +++ | +++ | + (30–60% reduction compared with wild-type CXCR4) | +++ | +++ | +++ | +++ | 80% | – | – | – | – |
| CC(C)C[C@@H](N)C(=O)NCC(=O)N[C@H](C)C(=O)N[C@H](CO)C(=O)N[C@H](Cc1c[nH]c2ccccc12)C(=O)N[C@H](Cc1c[nH]cn1)C(=O)N[C@H](CCCNC(=N)N)C(=O)N1CCC[C@@H]1C(=O)N[C@H](CC(=O)O)C(=O)N[C@H](CCCCN)C(=O)NCCCC[C@@H](NC(=O)[C@H]1CCCN1C(=O)[C@@H](CC(C)C)NC(=O)[C@H]1CCCN1C(=O)[C@@H](CCCNC(=N)N)NC(=O)[C@@H](CCCCN)NC(=O)[C@@H](CCC(N)=O)NC(=O)[C@@H](Cc1ccc(O)cc1)NC(=O)CNC(=O)[C@@H](CC(C)C)NC(=O)[C@@H](CS)NC(=O)[C@@H](CS)NC(=O)[C@@H](CCCCN)NC(=O)[C@@H](CC(=O)O)NC(=O)[C@H]1CCCN1C(=O)[C@@H](CCCNC(=N)N)NC(=O)[C@@H](Cc1c[nH]cn1)NC(=O)[C@@H](Cc1c[nH]c2ccccc12)NC(=O)[C@@H](CO)NC(=O)[C@@H](C)NC(=O)CNC(=O)[C@H](N)CC(C)C)C(=O)O [HC4319] (I: H-[dL]G[dA][dS][dW][dH][dR][dP][dD][dK][dC][dC][dL]G[dY][dQ][dK][dR][dP][dL][dP][dK]-OH / II: H-[dL]G[dA][dS][dW][dH][dR][dP][dD][dK]; amide I:22-II:C; N-terminus and C-terminus assumed) | ++ (10–29% reduction compared with wild-type CXCR4) | ++ (10–29% reduction compared with wild-type CXCR4) | +++ | +++ | ++ (10–29% reduction compared with wild-type CXCR4) | ++ (10–29% reduction compared with wild-type CXCR4) | +++ | ++ (10–29% reduction compared with wild-type CXCR4) | +++ | ++ (10–29% reduction compared with wild-type CXCR4) | – | 56% | – | – | – |
| CC(C)NCCCC[C@H](NC(=O)[C@H]1CCC(=O)N[C@@H](Cc2ccccc2)C(=O)N[C@@H](Cc2ccc(O)cc2)C(=O)N[C@@H](CCCCNC(C)C)C(=O)N[C@H](CCCNC(=N)N)C(=O)N[C@@H](Cc2ccc3ccccc3c2)C(=O)NCC(=O)N1)C(N)=O [LY2510924] (FY[Lys(iPr)][dR][2Nal]G[dE][Lys(iPr)]-NH2; lactam N-7 (inferred)) | ++ (10–29% reduction compared with wild-type CXCR4) | ++ (10–29% reduction compared with wild-type CXCR4) | +++ | ++ (10–29% reduction compared with wild-type CXCR4) | ++ (10–29% reduction compared with wild-type CXCR4) | + (30–60% reduction compared with wild-type CXCR4) | ++ (10–29% reduction compared with wild-type CXCR4) | ++ (10–29% reduction compared with wild-type CXCR4) | + (30–60% reduction compared with wild-type CXCR4) | +++ | – | – | 135 ± 63.9 nM | 76% | – |
| I: [dL]G[dA][dS][dW][dH][dR][dP][dD][dK][dC][dC][dL]G[dY][dQ][dK][dR][dP][dL][dP] / II: [dL]G[dA][dS][dW][dH][dR][dP][dD][dK][dC][dC][dL]G[dY][dQ][dK][dR][dP][dL][dP] (disulfide I:11-II:11, I:12-II:12) [DV1 dimer] | +++ | ++ (10–29% reduction compared with wild-type CXCR4) | +++ | +++ | ++ (10–29% reduction compared with wild-type CXCR4) | ++ (10–29% reduction compared with wild-type CXCR4) | +++ | +++ | ++ (10–29% reduction compared with wild-type CXCR4) | ++ (10–29% reduction compared with wild-type CXCR4) | – | – | – | – | 43% |
